The target of data set [1] is Beta-1 adrenergic receptor (Homo sapiens) (UniProt P08588). The data set can be described thus: BETA1/HU Eurofins SafetyScreen44 (BI). As to conditions: Compound concentration 10.0 uM; call rule not given here.
Data set [2] deals with Glutamate NMDA receptor (Rattus norvegicus) (UniProt P35439+Q00959+Q00960+Q00961+Q62645+Q8VHN2+Q9R1M7). The data set can be described thus: NMDAAGSI/RA Eurofins SafetyScreen44 (BI). As to conditions: filed as agonist, Compound concentration 10.0 uM.
In data set [3] the target is Adenosine receptor A1 (Homo sapiens) (UniProt P30542). The data set can be described thus: A1/HU Eurofins SafetyScreen44 (BI). The conditions noted are these: Compound concentration 10.0 uM.
Data set [4] has as its target Androgen receptor (Rattus norvegicus) (UniProt P15207). The data set can be described thus: TESTOST/RA Eurofins SafetyScreen44 (BI). As to conditions: Compound concentration 10.0 uM.
Data set [5] deals with T1, hERG (KCNH2) (Homo sapiens, UniProt Q12809). Kind of data set: K+/HERG Eurofins SafetyScreen44 (BI). As to conditions: compound concentration 10 uM, read-out: % Ctrl.
T1 sequence (Q12809 whole entry): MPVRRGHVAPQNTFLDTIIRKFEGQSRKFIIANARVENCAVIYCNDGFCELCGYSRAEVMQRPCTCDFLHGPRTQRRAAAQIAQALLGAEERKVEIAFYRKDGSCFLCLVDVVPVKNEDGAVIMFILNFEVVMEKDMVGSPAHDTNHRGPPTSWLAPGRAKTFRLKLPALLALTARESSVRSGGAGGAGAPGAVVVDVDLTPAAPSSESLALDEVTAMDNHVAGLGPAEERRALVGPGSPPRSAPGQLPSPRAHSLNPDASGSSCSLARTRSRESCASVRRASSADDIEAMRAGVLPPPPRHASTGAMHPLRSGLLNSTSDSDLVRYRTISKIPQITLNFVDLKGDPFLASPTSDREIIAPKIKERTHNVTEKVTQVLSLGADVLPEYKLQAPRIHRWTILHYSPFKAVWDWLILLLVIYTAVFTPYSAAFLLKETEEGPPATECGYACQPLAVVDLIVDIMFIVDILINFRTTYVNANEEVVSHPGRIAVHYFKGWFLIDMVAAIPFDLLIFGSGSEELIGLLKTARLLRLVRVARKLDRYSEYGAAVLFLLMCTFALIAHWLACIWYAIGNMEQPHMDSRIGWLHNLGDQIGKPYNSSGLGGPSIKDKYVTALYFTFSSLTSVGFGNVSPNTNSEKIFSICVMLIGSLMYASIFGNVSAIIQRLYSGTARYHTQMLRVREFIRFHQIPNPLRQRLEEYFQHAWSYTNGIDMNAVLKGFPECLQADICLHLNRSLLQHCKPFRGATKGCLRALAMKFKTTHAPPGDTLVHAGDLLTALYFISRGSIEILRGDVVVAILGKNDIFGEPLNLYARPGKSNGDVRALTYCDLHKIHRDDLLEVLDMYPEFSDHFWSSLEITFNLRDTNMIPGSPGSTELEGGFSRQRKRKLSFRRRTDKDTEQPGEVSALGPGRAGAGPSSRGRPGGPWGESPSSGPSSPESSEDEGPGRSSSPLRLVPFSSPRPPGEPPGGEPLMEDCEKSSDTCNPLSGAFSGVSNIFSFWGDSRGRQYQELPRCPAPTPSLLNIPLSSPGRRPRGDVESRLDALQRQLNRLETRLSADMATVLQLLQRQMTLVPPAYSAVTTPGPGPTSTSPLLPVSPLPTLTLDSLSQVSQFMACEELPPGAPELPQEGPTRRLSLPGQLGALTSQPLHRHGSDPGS
Data set [6] concerns the target D(1A) dopamine receptor (Homo sapiens) (UniProt P21728). Kind of data set: D1/HU Eurofins SafetyScreen44 (BI). The conditions noted are these: Compound concentration 10.0 uM.
Data set [7] concerns the target Gamma-aminobutyric acid receptor subunit alpha-1 (Rattus norvegicus) (UniProt P62813). Kind of data set: GABAACENTR Eurofins SafetyScreen44 (BI). As to conditions: Compound concentration 10.0 uM.
Data set [8] has as its target D(3) dopamine receptor (Homo sapiens) (UniProt P35462). The data set can be described thus: D3/HU Eurofins SafetyScreen44 (BI). The conditions noted are these: Compound concentration 10.0 uM.
For data set [9], the target named is B2 bradykinin receptor (Homo sapiens) (UniProt P30411). The data set can be described thus: B2/H Eurofins SafetyScreen44 (BI). The conditions noted are these: filed as antagonist, Compound concentration 10.0 uM.
In data set [10] the target is B1 bradykinin receptor (Homo sapiens) (UniProt P46663). Kind of data set: B1/H Eurofins SafetyScreen44 (BI). The conditions noted are these: Compound concentration 10.0 uM.
Data set [11] addresses Muscarinic acetylcholine receptor M3 (Homo sapiens, UniProt P20309). The data set can be described thus: GPCRScan assay: inhibition of M3. More on the design: radioligand conc. used [nm] 0.3 – 1.0, parental cells stable CHO.
Data set [12] concerns the target Interleukin-1 beta (Mus musculus) (UniProt P10749). The data set can be described thus: IL-1 Eurofins SafetyScreen44 (BI). As to conditions: Compound concentration 10.0 uM.
Data set [13] has as its target D(2) dopamine receptor (Homo sapiens) (UniProt P14416). Kind of data set: D2S/HU Eurofins SafetyScreen44 (BI). As to conditions: Compound concentration 10.0 uM.
The target in data set [14] is Adenosine receptor A2a (Homo sapiens) (UniProt P29274). The data set can be described thus: A2A/HU Eurofins SafetyScreen44 (BI). As to conditions: Compound concentration 10.0 uM.
The target of data set [15] is ATP-sensitive inward rectifier potassium channel 1 isoform X1 (Mesocricetus auratus) (UniProt A0A1U8CU73). Kind of data set: K+/KATP/HA Eurofins SafetyScreen44 (BI). The conditions noted are these: Cricetinae; Compound concentration 10.0 uM.
In data set [16] the target is Beta-1 adrenergic receptor (Homo sapiens) (UniProt P08588). As to conditions: Compound concentration 10.0 uM.
For data set [17], the target named is Glutamate receptor ionotropic, kainate 1 (Rattus norvegicus) (UniProt P22756). The data set can be described thus: KAINATE/R Eurofins SafetyScreen44 (BI). The conditions noted are these: Compound concentration 10.0 uM.
Data set [18] concerns the target T2, Alpha-2C adrenergic receptor (Homo sapiens) (UniProt P18825).
T2 sequence (whole entry): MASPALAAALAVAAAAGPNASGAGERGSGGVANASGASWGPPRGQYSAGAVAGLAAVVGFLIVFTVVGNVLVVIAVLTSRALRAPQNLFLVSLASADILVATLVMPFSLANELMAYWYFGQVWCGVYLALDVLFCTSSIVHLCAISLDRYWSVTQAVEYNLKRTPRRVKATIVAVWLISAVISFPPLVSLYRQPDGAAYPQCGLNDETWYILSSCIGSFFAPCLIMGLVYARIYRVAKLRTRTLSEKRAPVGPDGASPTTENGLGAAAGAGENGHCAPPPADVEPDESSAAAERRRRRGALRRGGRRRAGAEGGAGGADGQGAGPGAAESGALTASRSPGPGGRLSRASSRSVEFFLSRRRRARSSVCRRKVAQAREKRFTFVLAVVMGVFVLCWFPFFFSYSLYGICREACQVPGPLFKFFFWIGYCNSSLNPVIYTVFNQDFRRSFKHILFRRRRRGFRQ
The data set can be described thus: ALPHA2C/H Eurofins SafetyScreen44 (BI).

In data set [19] the target is 3',5'-cyclic-AMP phosphodiesterase 4D (Homo sapiens) (UniProt Q08499). The data set can be described thus: PDE4D2 Eurofins SafetyScreen44 (BI). As to conditions: Compound concentration 10.0 uM.
Data set [20] has as its target Prostaglandin G/H synthase 2 (Homo sapiens) (UniProt P35354). Kind of data set: COX-2 Eurofins SafetyScreen44 (BI). As to conditions: Compound concentration 10.0 uM.
Data set [21] addresses Androgen receptor (Homo sapiens) (UniProt P10275). The data set can be described thus: ANDROGEN/H Eurofins SafetyScreen44 (BI). The conditions noted are these: Compound concentration 10.0 uM.
Data set [22] has as its target Endothelin-1 receptor (Homo sapiens) (UniProt P25101). The data set can be described thus: ETA/H Eurofins SafetyScreen44 (BI). The conditions noted are these: Compound concentration 10.0 uM.
Data set [23] has as its target Potassium voltage-gated channel subfamily V member 1 (Rattus norvegicus) (UniProt P97557). Kind of data set: K+/VOLT/RA Eurofins SafetyScreen44 (BI). As to conditions: Compound concentration 10.0 uM.
In data set [24] the target is 5-hydroxytryptamine receptor 2B (Homo sapiens) (UniProt P41595). Kind of data set: 5HT2B/H AG Eurofins SafetyScreen44 (BI). As to conditions: filed as agonist, Compound concentration 10.0 uM.
Data set [25] concerns the target D(2) dopamine receptor (Homo sapiens) (UniProt P14416). Kind of data set: D2SH_AGON Eurofins SafetyScreen44 (BI). As to conditions: filed as agonist, Compound concentration 10.0 uM.
The target in data set [26] is T3, Muscarinic acetylcholine receptor M2 (Homo sapiens) (UniProt P08172).
T3 sequence (whole entry): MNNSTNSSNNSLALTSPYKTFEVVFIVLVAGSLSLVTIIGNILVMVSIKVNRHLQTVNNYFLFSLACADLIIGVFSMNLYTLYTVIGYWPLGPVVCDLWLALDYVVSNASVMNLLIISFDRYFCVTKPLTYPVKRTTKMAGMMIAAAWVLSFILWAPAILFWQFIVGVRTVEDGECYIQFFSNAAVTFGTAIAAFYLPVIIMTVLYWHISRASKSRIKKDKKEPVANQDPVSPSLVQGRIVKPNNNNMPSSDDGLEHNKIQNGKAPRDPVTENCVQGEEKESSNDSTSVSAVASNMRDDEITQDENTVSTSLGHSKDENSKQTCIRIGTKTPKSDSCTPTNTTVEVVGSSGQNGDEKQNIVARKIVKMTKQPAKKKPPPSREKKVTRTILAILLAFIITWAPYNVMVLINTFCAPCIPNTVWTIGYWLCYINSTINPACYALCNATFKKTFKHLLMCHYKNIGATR
Kind of data set: M2/H Eurofins SafetyScreen44 (BI). As to conditions: filed as antagonist, Compound concentration 10.0 uM.

Data set [27] concerns the target 5-hydroxytryptamine receptor 1B (Homo sapiens) (UniProt P28222). The data set can be described thus: 5HT1B(H) Eurofins SafetyScreen44 (BI). The conditions noted are these: filed as antagonist, Compound concentration 10.0 uM.
Data set [28] has as its target T1, hERG (KCNH2). The data set can be described thus: HERG_DOFETILIDE Eurofins SafetyScreen44 (BI). More on the design: mode of action inhibitor. The conditions noted are these: probe [3H] Dofetilide, compound concentration 10 uM, read-out: % Ctrl.
In data set [29] the target is D(4) dopamine receptor (Homo sapiens) (UniProt P21917). The conditions noted are these: Compound concentration 10.0 uM.
Chain of D(4) dopamine receptor (Homo sapiens) (P21917 whole entry): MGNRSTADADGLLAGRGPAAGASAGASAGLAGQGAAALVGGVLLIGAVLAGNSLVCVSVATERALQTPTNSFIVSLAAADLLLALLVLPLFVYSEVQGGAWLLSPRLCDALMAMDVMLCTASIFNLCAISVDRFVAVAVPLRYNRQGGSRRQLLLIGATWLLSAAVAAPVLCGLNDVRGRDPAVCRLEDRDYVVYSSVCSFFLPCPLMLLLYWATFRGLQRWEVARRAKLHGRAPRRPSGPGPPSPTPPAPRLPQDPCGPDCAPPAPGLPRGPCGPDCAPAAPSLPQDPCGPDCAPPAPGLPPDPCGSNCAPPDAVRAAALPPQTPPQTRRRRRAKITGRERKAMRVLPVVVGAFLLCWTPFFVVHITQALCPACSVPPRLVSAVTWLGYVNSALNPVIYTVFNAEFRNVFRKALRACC
In data set [30] the target is Beta-2 adrenergic receptor (Homo sapiens) (UniProt P07550). The conditions noted are these: Compound concentration 10.0 uM.
Chain of Beta-2 adrenergic receptor (Homo sapiens) (P07550 whole entry, looked up): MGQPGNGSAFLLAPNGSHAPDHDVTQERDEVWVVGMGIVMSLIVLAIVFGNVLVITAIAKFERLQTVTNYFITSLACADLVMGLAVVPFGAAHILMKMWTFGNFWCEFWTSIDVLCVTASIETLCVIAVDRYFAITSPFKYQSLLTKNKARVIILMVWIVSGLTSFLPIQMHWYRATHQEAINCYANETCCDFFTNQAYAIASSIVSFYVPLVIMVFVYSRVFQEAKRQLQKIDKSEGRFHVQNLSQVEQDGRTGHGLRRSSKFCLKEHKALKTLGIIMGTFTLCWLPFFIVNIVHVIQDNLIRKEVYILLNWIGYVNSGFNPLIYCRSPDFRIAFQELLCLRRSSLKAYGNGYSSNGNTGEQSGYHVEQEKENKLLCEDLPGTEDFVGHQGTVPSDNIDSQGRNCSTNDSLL
Data set [31] deals with D(1A) dopamine receptor (Homo sapiens) (UniProt P21728). Kind of data set: D1/H Eurofins SafetyScreen44 (BI). As to conditions: filed as antagonist, Compound concentration 10.0 uM.
Chain of D(1A) dopamine receptor (Homo sapiens) (P21728 whole entry): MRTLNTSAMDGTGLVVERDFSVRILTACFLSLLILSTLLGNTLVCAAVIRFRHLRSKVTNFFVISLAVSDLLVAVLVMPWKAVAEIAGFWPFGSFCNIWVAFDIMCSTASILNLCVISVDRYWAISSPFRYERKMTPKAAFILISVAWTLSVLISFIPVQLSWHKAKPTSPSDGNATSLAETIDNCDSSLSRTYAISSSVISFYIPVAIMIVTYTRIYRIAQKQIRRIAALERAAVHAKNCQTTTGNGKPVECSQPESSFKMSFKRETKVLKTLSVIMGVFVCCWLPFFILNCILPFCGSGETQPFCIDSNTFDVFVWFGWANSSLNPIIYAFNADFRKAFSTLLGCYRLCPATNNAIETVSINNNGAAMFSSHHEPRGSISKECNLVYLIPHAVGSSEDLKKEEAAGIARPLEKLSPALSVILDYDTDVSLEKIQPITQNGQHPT

Consider two compounds from ChEMBL document CHEMBL5058643, “Data for DCP probe BI-2081” (2022).

The structures appear in SMILES notation.

Chain of Beta-1 adrenergic receptor (Homo sapiens) (P08588 whole entry, looked up): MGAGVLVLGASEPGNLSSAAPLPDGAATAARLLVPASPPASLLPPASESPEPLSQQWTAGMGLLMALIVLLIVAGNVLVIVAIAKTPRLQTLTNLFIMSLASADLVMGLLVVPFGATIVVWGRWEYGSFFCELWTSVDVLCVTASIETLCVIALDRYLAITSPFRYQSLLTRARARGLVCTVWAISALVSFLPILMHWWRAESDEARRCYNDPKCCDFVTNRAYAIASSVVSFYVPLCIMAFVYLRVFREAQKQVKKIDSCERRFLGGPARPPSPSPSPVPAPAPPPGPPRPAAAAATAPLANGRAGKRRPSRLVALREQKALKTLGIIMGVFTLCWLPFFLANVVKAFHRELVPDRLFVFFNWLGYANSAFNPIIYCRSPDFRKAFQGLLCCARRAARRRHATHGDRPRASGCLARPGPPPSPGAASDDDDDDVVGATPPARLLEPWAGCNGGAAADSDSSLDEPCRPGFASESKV
Chain of D(2) dopamine receptor (Homo sapiens) (P14416 whole entry): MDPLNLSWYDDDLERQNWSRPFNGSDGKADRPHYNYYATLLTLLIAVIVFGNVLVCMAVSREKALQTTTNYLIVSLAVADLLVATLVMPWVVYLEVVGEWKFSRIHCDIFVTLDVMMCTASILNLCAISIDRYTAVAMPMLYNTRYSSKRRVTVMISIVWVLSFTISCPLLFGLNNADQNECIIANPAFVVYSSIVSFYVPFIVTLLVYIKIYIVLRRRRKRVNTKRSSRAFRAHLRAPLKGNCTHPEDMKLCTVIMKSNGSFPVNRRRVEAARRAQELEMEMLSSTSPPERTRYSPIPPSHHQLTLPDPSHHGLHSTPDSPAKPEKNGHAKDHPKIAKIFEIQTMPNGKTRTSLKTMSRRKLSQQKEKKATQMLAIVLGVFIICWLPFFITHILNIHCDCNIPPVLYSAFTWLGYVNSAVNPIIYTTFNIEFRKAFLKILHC
Chain of Muscarinic acetylcholine receptor M3 (P20309 whole entry): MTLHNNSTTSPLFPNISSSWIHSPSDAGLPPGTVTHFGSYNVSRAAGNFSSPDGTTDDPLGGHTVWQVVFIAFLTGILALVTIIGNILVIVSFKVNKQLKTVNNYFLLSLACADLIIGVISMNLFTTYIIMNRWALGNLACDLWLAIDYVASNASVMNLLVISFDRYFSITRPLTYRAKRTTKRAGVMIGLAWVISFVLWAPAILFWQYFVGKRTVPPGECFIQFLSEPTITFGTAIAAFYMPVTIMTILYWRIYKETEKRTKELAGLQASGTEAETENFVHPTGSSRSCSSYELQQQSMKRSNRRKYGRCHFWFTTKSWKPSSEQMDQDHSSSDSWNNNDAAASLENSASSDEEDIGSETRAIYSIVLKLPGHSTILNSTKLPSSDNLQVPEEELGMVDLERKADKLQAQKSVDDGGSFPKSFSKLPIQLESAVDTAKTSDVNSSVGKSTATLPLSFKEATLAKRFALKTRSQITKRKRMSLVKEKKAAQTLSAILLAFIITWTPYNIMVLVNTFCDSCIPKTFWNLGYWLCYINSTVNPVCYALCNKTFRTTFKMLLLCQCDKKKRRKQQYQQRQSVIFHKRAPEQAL
Chain of Androgen receptor (Homo sapiens) (P10275 whole entry): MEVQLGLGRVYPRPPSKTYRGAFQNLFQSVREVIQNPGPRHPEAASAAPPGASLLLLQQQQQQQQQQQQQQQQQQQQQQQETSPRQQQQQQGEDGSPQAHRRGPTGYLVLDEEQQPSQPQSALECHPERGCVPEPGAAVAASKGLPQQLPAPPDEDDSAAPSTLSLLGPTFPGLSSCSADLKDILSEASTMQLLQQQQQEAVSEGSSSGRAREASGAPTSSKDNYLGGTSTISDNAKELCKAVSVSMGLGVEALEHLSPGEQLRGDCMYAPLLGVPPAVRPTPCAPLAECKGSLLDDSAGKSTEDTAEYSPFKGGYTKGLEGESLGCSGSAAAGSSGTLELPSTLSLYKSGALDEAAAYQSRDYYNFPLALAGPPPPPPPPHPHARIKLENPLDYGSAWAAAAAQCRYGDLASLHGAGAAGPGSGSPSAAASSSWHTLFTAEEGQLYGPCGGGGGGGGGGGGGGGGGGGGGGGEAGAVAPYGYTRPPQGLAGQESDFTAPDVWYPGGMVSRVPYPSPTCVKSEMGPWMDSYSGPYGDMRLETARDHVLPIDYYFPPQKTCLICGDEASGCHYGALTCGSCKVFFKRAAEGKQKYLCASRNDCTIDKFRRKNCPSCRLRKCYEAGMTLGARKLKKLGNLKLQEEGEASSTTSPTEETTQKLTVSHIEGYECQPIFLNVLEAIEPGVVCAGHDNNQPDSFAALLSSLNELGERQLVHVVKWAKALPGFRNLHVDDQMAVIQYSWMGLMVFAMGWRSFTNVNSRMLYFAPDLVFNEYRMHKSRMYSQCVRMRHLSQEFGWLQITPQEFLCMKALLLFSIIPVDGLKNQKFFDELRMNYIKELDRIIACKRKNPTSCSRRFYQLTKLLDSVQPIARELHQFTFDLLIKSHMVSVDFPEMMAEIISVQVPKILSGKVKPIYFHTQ
Chain of Interleukin-1 beta (Mus musculus) (P10749 118-269 limits assumed): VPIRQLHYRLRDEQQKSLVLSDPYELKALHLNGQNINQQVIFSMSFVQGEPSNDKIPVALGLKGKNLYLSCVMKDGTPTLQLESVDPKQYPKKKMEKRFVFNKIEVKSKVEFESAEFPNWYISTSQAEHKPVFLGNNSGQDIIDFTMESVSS

`Cc1cc(OCCC(C)(C)O)cc(C)c1-c1ccc(F)c2c1CC[C@H]2Oc1ccc2c(c1)OC[C@H]2CC(=O)O`: the residual activity in data set [1] is 98%; in [2] it was 89%; in data set [3], 68%; in data set [4] it was 75%; in data set [6] it was 81%; in data set [7], 83%. Further, the residual activity is 63% in [8]; 103% in data set [9]; 91% in [10]; 100% in [12]; 100% in data set [13]; 125% in [14]. Also, the residual activity in data set [15] was 95%; in [17], 117%; in data set [18] (Compound concentration 0.1 uM), 93%; in data set [18] (Compound concentration 0.3 uM), 100%; in [18] (Compound concentration 1.0 uM), 95%; in data set [18] (Compound concentration 3.0 uM) it was 82%. Further, the figures for the residual activity in [18] (Compound concentration 10.0 uM) and in data set [18] (Compound concentration 30.0 uM) were 23% and 1%, respectively. For the same compound, the activity at 10 µM in [5] was 80% (not active). Further, the inhibitory constant (Ki) (usually a dissociation constant, usually derived from enzyme kinetics or from competition with a known ligand) in data set [11] was greater than 10 µM. Besides, in data set [11], the pKi (as a rule, the negative decadic logarithm of the Ki, by convention in mol/L) was less than 5. Also, the inhibition (usually the drop in the measured response relative to a control, in per cent) in [16] was 4.62%.

Regarding `COCCCS(=O)(=O)c1cc(C)c(-c2ccc(F)c3c2CC[C@H]3Oc2ccc3c(c2)OC[C@H]3CC(=O)O)c(C)c1`, the residual activity is 103% in data set [19]; 81% in [20]; 102% in data set [21]; 56% in data set [22]; 108% in [23]; 103% in data set [24]. Also, the residual activity was 88% in data set [25], 112% in data set [26], 97% in data set [27] and 87% in data set [31]. The activity at 10 µM in data set [28] was 93% (not active). Moreover, the figures for the inhibition in data set [29] and in data set [30] were 12.9% and 2.56%, respectively.
